# Laboratory results reported in PubChem BioAssay (NCI).
#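 Assay format: 96-well plates, 48-hour exposure. GI50: concentration for 50% inhibition of growth. TGI marks complete inhibition of growth.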
# Key:
# Test in all cases: NCI-60 cell line screen, 48 h
# A498 renal = tested on: A498 renal
# ACHN renal = tested on: ACHN renal
# KM12 colon = tested on: KM12 colon
# M14 melanoma = tested on: M14 melanoma
# MOLT-4 leukemia = tested on: MOLT-4 leukemia
# NCI-H522 lung = tested on: NCI-H522 lung
# OVCAR-3 ovarian = tested on: OVCAR-3 ovarian
# OVCAR-8 ovarian = tested on: OVCAR-8 ovarian
# SN12C renal = tested on: SN12C renal
# SR leukemia = tested on: SR leukemia
SMILES,GI50 (A498 renal),TGI (A498 renal),GI50 (ACHN renal),TGI (ACHN renal),GI50 (KM12 colon),TGI (KM12 colon),GI50 (M14 melanoma),TGI (M14 melanoma),GI50 (MOLT-4 leukemia),TGI (MOLT-4 leukemia),GI50 (NCI-H522 lung),TGI (NCI-H522 lung),GI50 (OVCAR-3 ovarian),TGI (OVCAR-3 ovarian),GI50 (OVCAR-8 ovarian),TGI (OVCAR-8 ovarian),GI50 (SN12C renal),TGI (SN12C renal),GI50 (SR leukemia),TGI (SR leukemia)
O=Nc1c(-c2c(O)[nH]c3ccc([N+](=O)[O-])cc23)[nH]c2ccc(O)cc12,0.218 µM,1.24 µM,0.261 µM,> 100 µM,0.298 µM,1.28 µM,0.496 µM,> 87 µM,0.359 µM,4.21 µM,0.38 µM,2.67 µM,0.367 µM,3.04 µM,0.36 µM,> 100 µM,0.366 µM,> 100 µM,0.258 µM,12.6 µM
CCOC(=O)C1(Br)C(c2ccccc2)NC(=O)NC1(C)Br (stereo not drawn),–,> 100 µM,–,> 100 µM,–,> 100 µM,–,> 100 µM,–,> 73.7 µM,–,> 53.2 µM,–,> 100 µM,–,> 100 µM,–,> 100 µM,–,> 100 µM
O=Cc1ccccc1OCCOc1cc(OCCOc2ccccc2C=O)c(OCCOc2ccccc2C=O)cc1OCCOc1ccccc1C=O,–,> 100 µM,–,> 92.5 µM,–,> 100 µM,–,> 100 µM,–,> 100 µM,–,> 100 µM,–,> 100 µM,–,> 100 µM,–,> 100 µM,–,> 100 µM
O=C(O)[C@@H]1[C@H](C(=O)O)[C@H](C(=O)O)C[C@@H]1C(=O)O,–,> 100 µM,–,> 100 µM,–,> 100 µM,–,> 100 µM,–,> 100 µM,–,> 100 µM,–,> 100 µM,–,> 100 µM,–,> 100 µM,–,> 100 µM
CCCCCCCNc1nc(C(=O)OCC)ncc1-c1ccc(C(F)(F)F)cc1,16 µM,> 100 µM,32 µM,> 100 µM,33.6 µM,> 100 µM,35.8 µM,> 100 µM,34.4 µM,96.2 µM,31.3 µM,> 100 µM,32.6 µM,> 100 µM,40.2 µM,> 100 µM,33.8 µM,> 100 µM,35.5 µM,> 100 µM
O=C1C(c2c[nH]c3ccccc23)=C(c2c[nH]c3ccccc23)C(=O)N1O,8.1 µM,> 25 µM,> 25 µM,> 25 µM,> 25 µM,> 25 µM,> 25 µM,> 25 µM,> 25 µM,> 25 µM,> 25 µM,> 25 µM,> 25 µM,> 25 µM,> 25 µM,> 25 µM,> 25 µM,> 25 µM,> 25 µM,> 25 µM
CCCn1c(SC)nc(COC(=O)NC)c1COC(=O)NC,–,> 100 µM,–,> 100 µM,–,> 100 µM,–,> 100 µM,–,> 100 µM,–,> 100 µM,–,> 100 µM,–,> 100 µM,–,> 100 µM,–,> 100 µM
O=C(c1ccccc1)C1CCCCN1C(=O)c1ccccc1 (stereo not drawn),–,> 100 µM,–,> 100 µM,–,> 100 µM,–,> 100 µM,–,> 100 µM,–,> 100 µM,–,> 100 µM,–,> 100 µM,–,> 100 µM,–,> 100 µM
COc1cc2c(c(OC)c1OC)-c1ccc(N)c(=O)cc1[C@@H](NC(C)=O)CC2,0.0297 µM,–,0.152 µM,> 100 µM,< 0.01 µM,0.186 µM,0.0208 µM,–,0.0395 µM,> 100 µM,< 0.0114 µM,< 0.021 µM,< 0.012 µM,0.0362 µM,0.0477 µM,> 100 µM,0.0546 µM,> 100 µM,< 0.01 µM,> 100 µM
